# Where “and” joins values, the source holds several entries; their conditions need not be identical. Equal entries are not always repeated. Where two headings read alike, the source gives them in different places.
# Tested on: H460 cells
# Test: Cytotoxicity: anti-proliferation activity on H460 cells, multi-well Alamar Blue based assay
# Type: cell-based
# Description: Cell growth in the presence and absence of the test compound was compared following a multi-well Alamar Blue based assay, and measured by a fluorescence plate reader at 550 nm excitation and 590 nm emission (see Biosource International Inc., Tech Application Notes, Use of Alamar Blue in the measurement of Cell Viability and Toxicity, Determining IC50). H460 cells (ATCC HTB-177 (NCl—H40), 4,000 cells/well/200 μl) were seeded in a 96 well plate in RPMI medium (Invitrogen Corporation, Carlsbad, Calif.). After 24 hours, these plates were divided into 3 groups—Control group, 2 h treatment group and 3 day treatment group. A test compound was added in a range of concentration to each plate in the treatment groups (2 h and 3 day). In the 2 h treatment group, after 2 h, the H460 cells were rinsed to remove the test compound, incubated for 3 days, and stained with AlamarBlue. The cells in the 3-day treatment group were incubated along with the test compound for 3 days, followed by staining with AlamarBlue. In the Control group, AlamarBlue was added to the plate at (i) day 0 and (ii) day 3 and the fluorescence emission measured to establish the control reading. In all the groups, the capacity of the cells to proliferate was measured 6 hours after addition of AlamarBlue by a fluorescence plate reader at 550 nm excitation and 590 nm emission.
# [1] = read-out: GI50 (concentration required to inhibit cellular proliferation by 50%)
# [2] = read-out: GI90 (the source's name)
# [3] = Homo sapiens, NCI-H460, 72 h, H460 cells, 3 day incubation with compound, AlamarBlue, read-out: GI50 (concentration required to inhibit cellular proliferation by 50%)
# [4] = Homo sapiens, NCI-H460, 72 h, H460 cells, 3 day incubation with compound, AlamarBlue, read-out: GI90 (the source's name)
# [5] = Homo sapiens, NCI-H460, H460 cells, 2 h treatment, rinsed, then incubated for 3 days, AlamarBlue, read-out: GI50 (concentration required to inhibit cellular proliferation by 50%)
# [6] = Homo sapiens, NCI-H460, H460 cells, 2 h treatment, rinsed, then incubated for 3 days, AlamarBlue, read-out: GI90 (the source's name)
# [7] = Homo sapiens, NCI-H460, 2 h, read-out: GI90
# [8] = Homo sapiens, NCI-H460, 72 h, read-out: GI50 (concentration required to inhibit cellular proliferation by 50%)
# [9] = Homo sapiens, NCI-H460, 72 h, read-out: GI90
# [10] = Homo sapiens, NCI-H460, read-out: GI50 (concentration required to inhibit cellular proliferation by 50%)
SMILES,IC90 [7],GI50 [8],IC90 [9],GI50 [10],also measured
COc1cccc2c1C(=O)c1c(O)c3c(c(O)c1C2=O)C[C@@](O)(C(C)=O)C[C@@H]3O[C@H]1CC(N2CCN(C(=O)OCc3cnc([N+](=O)[O-])n3C)CC2C#N)C(O)[C@H](C)O1 (some centres unmarked) [Compound 3],,,,,GI50 [1]: 2.5 nM and 1.3 nM; IC90 [2]: 7.90 nM and 4.00 nM
COc1cccc2c1C(=O)c1c(O)c3c(c(O)c1C2=O)C[C@@](O)(C(C)=O)C[C@@H]3O[C@@H]1CC(N2CCN(C(=O)OCc3ccc([N+](=O)[O-])o3)CC2C#N)C(O)[C@H](C)O1 (some centres unmarked) [Compound 5],,,,,GI50 [3]: 1 nM; IC90 [4]: 4 nM; GI50 [5]: 3.2 nM; IC90 [6]: 10 nM
COc1cccc2c1C(=O)c1c(O)c3c(c(O)c1C2=O)C[C@@](O)(C(O)CO)C[C@@H]3O[C@H]1CC(N2CCN(C(=O)OC(C)(C)C)CC2C#N)[C@H](O)[C@H](C)O1 (some centres unmarked) [Compound 13],50.1 nM,4 nM,20 nM,10 nM,
COCCOC(=O)N1CCN(C2C[C@H](O[C@H]3C[C@](O)(C(C)=O)Cc4c(O)c5c(c(O)c43)C(=O)c3c(OC)cccc3C5=O)O[C@H](C)C2O)C(C#N)C1 (some centres unmarked) [Compound 14],0.4 nM,0.2 nM,0.63 nM,0.2 nM,
COc1cccc2c1C(=O)c1c(O)c3c(c(O)c1C2=O)C[C@@](O)(C(C)=O)C[C@@H]3O[C@H]1CC2C(OC3CN(C(=O)OCc4cnc([N+](=O)[O-])n4C)CCN32)[C@H](C)O1 (some centres unmarked) [Compound 28],0.1 nM,0.4 nM,1.26 nM,0.03 nM,
COc1cccc2c1C(=O)c1c(O)c3c(c(O)c1C2=O)C[C@@](O)(C(C)=O)C[C@@H]3O[C@H]1CC(N2CCN(C(=O)OCc3cnc([N+](=O)[O-])n3C)CC2)C(O)[C@H](C)O1 (some centres unmarked) [Compound 33],,,,,GI50 [1]: 20 nM and 10 nM; IC90 [2]: 79 nM and 50 nM
COc1cccc2c1C(=O)c1c(O)c3c(c(O)c1C2=O)CC(O)(C(C)=O)CC3OC1CC(N2CCN(C(=O)OCC3c4ccccc4-c4ccccc43)CC2)C(O)C(C)O1 (centres unmarked) [Compound 44],,,,,IC90 [2]: 501 nM
COc1cccc2c1C(=O)c1c(O)c3c(c(O)c1C2=O)C[C@@](O)(C(C)=O)C[C@@H]3O[C@H]1CC(N2CCN(C(=O)C(F)(F)F)CC2)C(O)[C@H](C)O1 (some centres unmarked) [Compound 45],,,,,IC90 [2]: 1000 nM and 630 nM
COc1cccc2c1C(=O)c1c(O)c3c(c(O)c1C2=O)CC(O)(C(C)=O)CC3OC1CC(N2CCN(C(C)=O)CC2)C(O)C(C)O1 (centres unmarked) [Compound 46],,,,,IC90 [2]: 158.50 nM and 100.00 nM
COc1cccc2c1C(=O)c1c(O)c3c(c(O)c1C2=O)C[C@@](O)(C(C)=O)C[C@@H]3O[C@H]1CC(N2CCN(C(=O)OCC(C)C)CC2)C(O)[C@H](C)O1 (some centres unmarked) [Compound 47],398 nM,20 nM,100 nM,126 nM,
COc1cccc2c1C(=O)c1c(O)c3c(c(O)c1C2=O)C[C@@](O)(C(C)=O)C[C@@H]3O[C@H]1CC(N2CCN(C(=O)CC(C)(C)C)CC2)C(O)[C@H](C)O1 (some centres unmarked) [Compound 48],398 nM,63.1 nM,200 nM,141 nM,
COc1cccc2c1C(=O)c1c(O)c3c(c(O)c1C2=O)C[C@@](O)(C(O)CO)C[C@@H]3O[C@H]1CC(N2CCN(C(=O)OC(C)(C)C)CC2)[C@H](O)[C@H](C)O1 (some centres unmarked) [Compound 49],158 nM,20 nM,100 nM,63.1 nM,
COCCOC(=O)N1CCN2C(C1)OC1C2C[C@H](O[C@H]2C[C@](O)(C(=O)CO)Cc3c(O)c4c(c(O)c32)C(=O)c2c(OC)cccc2C4=O)O[C@@H]1C (some centres unmarked) [Compound 50],,,,,GI50 [3]: 0.16 nM; IC90 [4]: 0.32 nM; GI50 [5]: 0.13 nM; IC90 [6]: 0.4 nM
COc1cccc2c1C(=O)c1c(O)c3c(c(O)c1C2=O)C[C@@](O)(C(C)=O)C[C@@H]3O[C@H]1CC(NC(COCCOS(=O)(=O)c2ccc(C)cc2)OC)C(O)[C@H](C)O1 (some centres unmarked) [Compound 51],,,,2.5 nM,
COc1cccc2c1C(=O)c1c(O)c3c(c(O)c1C2=O)C[C@@](O)(C(C)=O)C[C@@H]3O[C@H]1CC(NC(C#N)COCCOS(=O)(=O)c2ccc(C)cc2)C(O)[C@H](C)O1 (some centres unmarked) [Compound 52],,,,0.3 nM,
COc1cccc2c1C(=O)c1c(O)c3c(c(O)c1C2=O)C[C@@](O)(C(C)=O)C[C@@H]3O[C@H]1CC(NC(C#N)COCCCl)C(O)[C@H](C)O1 (some centres unmarked) [Compound 53],,2.5 nM,,15.8 nM,
COc1cccc2c1C(=O)c1c(O)c3c(c(O)c1C2=O)C[C@@](O)(C(C)=O)C[C@@H]3O[C@H]1CC(N2CCOCC2C#N)C(OC(=O)OCC(C)C)[C@H](C)O1 (some centres unmarked) [Compound 57],316 nM,1.58 nM,10 nM,125 nM,
COc1cccc2c1C(=O)c1c(O)c3c(c(O)c1C2=O)C[C@]1(O)C[C@@H]3O[C@H]2CC([C@H](O)[C@H](C)O2)N2CCOCC2OCC1=O (some centres unmarked) [Compound 58],,,,,GI50 [3]: 0.14 nM; IC90 [4]: 0.6 nM; GI50 [5]: 0.3 nM; IC90 [6]: 1 nM
COc1cccc2c1C(=O)c1c(O)c3c(c(O)c1C2=O)C[C@@](O)(C(C)=O)C[C@@H]3O[C@H]1CC(N2CCOCC2O)C(O)[C@H](C)O1 (some centres unmarked) [Compound 59],1000 nM,50 nM,200 nM,200 nM,
COc1cccc2c1C(=O)c1c(O)c3c(c(O)c1C2=O)C[C@@](O)(C(=O)COC(=O)OCc1cnc([N+](=O)[O-])n1C)C[C@@H]3O[C@H]1CC(N2CCOCC2C#N)[C@H](O)[C@H](C)O1 (some centres unmarked) [Compound 60],2.5 nM,0.1 nM,0.2 nM,0.79 nM,
